Data: ChEMBL document CHEMBL3430912, “GSK Tres Cantos Anti-Kinetoplastid Screening (TCAKS) Data”

Key:
[1] = system: Trypanosoma cruzi; test: GSK_TCAKS: pIC50 Trypanosoma cruzi viability assay using beta-GAL activity. This assay was run at single shot at 5uM compound concentration per well. The biological reagents consisted of NIH-3T3 host cells and trypomastigotes parasitic cells; both cell types were set to a 3.3 * 10^5 cells/mL dilution in assay DMEM by means of a CASY cell counter device using a 60um capillary. 6 uL of the mixture were dispensed per well (about 1 * 10^3 host-cells and 1 * 10^3 parasites) with a Multidrop Combi dispenser. […] In all wells, the percentage of DMSO never exceeded 0.5%. Plates incubated for four days at 37C, 5% CO2. The substrate used for the assay fluorescence intensity (FLINT) readout was resorufin-beta-D-galactopiranoside (Sigma-Aldrich) at 5uM per well. It was diluted in PBS supplemented with the soft detergent Igepal (Fluka).; assay type: functional, organism-based, Mus musculus; details: Tulahuen, NIH3T3
[2] = system: Trypanosoma cruzi; test: (§1) GSK_TCAKS: pIC50 Trypanosoma cruzi Imaging: Infected Cells. […] Cells were then washed once with PBS before infection. T. cruzi trypomastigotes, collected at days 5 to 8 after infection from LLC-MK2 parasite infected cultures, were allowed to swim out for 4h at 37C from a centrifuged pellet (2,500 rpm/10 min/room temperature). Trypomastigotes were then collected and counted in a CASY Cell Counter. Trypomastigotes, in supplemented DMEM, were added to H9c2 cultures in a multiplicity of infection of 1 and incubated for 18 h. Cells were washed once with PBS before incubation of the infected H9c2 monolayer with trypsin (Life-Technologies) to detach cells from the flask. Cells were counted in a CASY Cell Counter using a 150 um capillary and their density set at 5 * 10^4 cells per mL in supplemented assay DMEM. Infected H9c2 were dispensed into 384-well poly-lysine coated assay plates at 50uL per well using a Multidrop Combi dispenser. After seeding them, the plates were incubated at 37C, 5% CO2 for 72h. Cultures were then fixed and stained by addition of 50 uL of a solution containing 8% formaldehyde and 4 uM DRAQ5 DNA dye (BioStatus, UK) per well. […] Five images were collected per well for reliable statistical analysis. Automated image analysis was performed with a script developed on Acapella High Content Imaging and Analysis Software (PerkinElmer). Output: percentage of infected cells per well as a second infection marker.; assay type: functional, organism-based, Rattus norvegicus; details: H9c2, 4 h
[3] = system: Trypanosoma cruzi; test: GSK_TCAKS: pIC50 Trypanosoma cruzi Imaging: Amastigotes/Cell. […] Cells were then washed once with PBS before infection. T. cruzi trypomastigotes, collected at days 5 to 8 after infection from LLC-MK2 parasite infected cultures, were allowed to swim out for 4h at 37C from a centrifuged pellet (2,500 rpm/10 min/room temperature). Trypomastigotes were then collected and counted in a CASY Cell Counter. Trypomastigotes, in supplemented DMEM, were added to H9c2 cultures in a multiplicity of infection of 1 and incubated for 18 h. Cells were washed once with PBS before incubation of the infected H9c2 monolayer with trypsin (Life-Technologies) to detach cells from the flask. Cells were counted in a CASY Cell Counter using a 150 um capillary and their density set at 5 * 10^4 cells per mL in supplemented assay DMEM. Infected H9c2 were dispensed into 384-well poly-lysine coated assay plates at 50uL per well using a Multidrop Combi dispenser. After seeding them, the plates were incubated at 37C, 5% CO2 for 72h. Cultures were then fixed and stained by addition of 50 uL of a solution containing 8% formaldehyde and 4 uM DRAQ5 DNA dye (BioStatus, UK) per well. […] Five images were collected per well for reliable statistical analysis. Automated image analysis was performed with a script developed on Acapella High Content Imaging and Analysis Software (PerkinElmer). Output: number of amastigotes per cell as infection level measurement.; assay type: functional, organism-based, Rattus norvegicus; details: H9c2, 4 h
[4] = system: Trypanosoma cruzi; test: as §1, with “H2C9” for “Trypanosoma cruzi”, “H9c2 Host Cardiomyocytes.” for “Infected Cells.”, “Number” for “percentage”, “H9c2 Host Cardiomyocytes nuclei to determine drug-related cytotoxicity.” for “infected cells per well as a second infection marker.”; assay type: functional, organism-based, Rattus norvegicus; details: H9c2, 4 h
[5] = system: Leishmania donovani; test: GSK_TCAKS: pIC50 Leishmania donovani viability assay using fluorescence intensity. Assay plates (1536-well) were prepared by adding 30nL per well of compound. For single shot assay, the final compound concentration was 5uM. […] Briefly, eGFP LdBOB axenic amastigotes were harvested, fixed and counted in a CASY cell counter (Roche-Applied Science). A final concentration of 1.5 * 10^5 cells per well were prepared in amastigote media containing 500 U/mL penicillin/streptomycin (Invitrogen) and 6uL was dispensed to each experimental well using a Multidrop Combi dispenser (Thermo Scientific). 6uL of assay media was dispensed to control columns used as reference for 100% compound response. Following incubation for 72 h at 37C, 5% CO2, 2 uL of resazurin was added to each well at a final concentration of 0.5 mM in phosphate buffered saline (PBS) with IGEPAL (Sigma-Aldrich), 0.05% (v/v).; assay type: functional, organism-based
[6] = system: Leishmania donovani; test: (§2) GSK_TCAKS: pIC50 Leishmania donovani Imaging: Infected Macrophages. Assay plates (384-well) were prepared by adding 250nL of compound to each well. For single shot assay, the final compound concentration was 5 uM. […] Automated image analysis was performed with a script developed on Acapella High Content Imaging and Analysis Software (PerkinElmer). Output: Percent of infected macrophage cells were reported for each well.; assay type: functional, organism-based, Homo sapiens; details: THP-1
[7] = system: Leishmania donovani; test: as §2, with “Amastigotes/Macrophages.” for “Infected Macrophages.”, “Average number” for “Percent”, “amastigotes per” for “infected”, “cell” for “cells”; assay type: functional, organism-based, Homo sapiens; details: THP-1
[8] = system: Leishmania donovani; test: as §2, with “THP-1 Host” for “Infected”, “THP-1 cell count” for “Percent of infected macrophage cells”; assay type: functional, organism-based, Homo sapiens
[9] = system: Trypanosoma brucei brucei; test: GSK_TCAKS: pIC50 Trypanosoma brucei viability assay using fluorescence intensity. Assay plates (1536-well) were prepared by dispensing 25nL of compound solution per well using an Echo acoustic dispenser (Labcyte).; assay type: functional, organism-based; details: Lister 427, 2 h
[10] = system: Trypanosoma brucei brucei; test: GSK_TCAKS: pIC50 Trypanosoma brucei viability assay using luminiscence. Assay plates (1536-well) were prepared. T. brucei cultures were harvested and counted in a CASY cell counter. A parasite suspension was prepared at a final concentration of 5 * 10^4 cells/mL in complete HMI9 medium and 6uL was dispensed to all wells containing compounds using a Multidrop Combi dispenser. 6uL of HMI9 media with 0.4% DMSO were dispensed to control columns. Plates were incubated for 24 h at 37C, 5% CO2 then tempered for 10 min at room temperature. ATP content was quantified by adding 4 uL of CellTiter-Glo Reagent (Promega) according to the manufacturer's instructions. Luminescence was measured using a ViewLux.; assay type: functional, organism-based; details: Lister 427, CASY
[11] = GSK_TCAKS: pIC50 HepG2 human cell line viability assay using luminiscence. […] Seeding density was checked to ensure that new mono-layers were not more than 50% confluent at the time of harvesting. Cell suspension was added to 500 mL of the same medium at a final density of 1.2 * 10^5 cells/mL. This cell suspension was dispensed (25 uL, 3000 cells per well) into 384-well clear-bottom plates using a Multidrop Combi dispenser. Prior to addition of the cell suspension, the screening compounds (250 nL) were pre-dispensed into the plates with an Echo liquid handler. Plates were incubated for 48 h at 37C, 5% CO2. After incubation, plates equilibrated at room temperature for 30 min before proceeding to develop the luminescent signal. The signal developer, CellTiter-Glo Reagent, was allowed to equilibrate at room temperature for 30 min and added to the plates (25uL per well) using a Multidrop Combi dispenser. Plates were left for 10 min at room temperature for stabilization and then read using a ViewLux.; assay type: toxicity, cell-based
[12] = system: NIH3T3; test: GSK_TCAKS: pIC50 NIH 3T3 cell line viability assay using luminiscence. Tissue culture surface treated assay plates (1536-well) were used. […] The 100% cells survival control was determined exposing the host-cells to a 0.5% DMSO concentration, whereas the 100% toxicity control was achieved by seeding the cells in presence of Amphotericin B at 50uM. Plates were incubated for four days at 37C, 5% CO2. The assay readout was developed by addition of 5uL of CellTiter-Glo Reagent following the manufacturer's instructions. Luminiscence was measured using a ViewLux.; assay type: functional, cell-based; details: Mus musculus, NIH3T3, 96 h
[13] = molecular target: Sterol 14-alpha demethylase (Trypanosoma cruzi (strain CL Brener), UniProt Q7Z1V1); test: GSK_TCAKS: pIC50 CYP51 from Trypanosoma cruzi.; assay type: functional
Sterol 14-alpha demethylase, sequence (Q7Z1V1 whole entry): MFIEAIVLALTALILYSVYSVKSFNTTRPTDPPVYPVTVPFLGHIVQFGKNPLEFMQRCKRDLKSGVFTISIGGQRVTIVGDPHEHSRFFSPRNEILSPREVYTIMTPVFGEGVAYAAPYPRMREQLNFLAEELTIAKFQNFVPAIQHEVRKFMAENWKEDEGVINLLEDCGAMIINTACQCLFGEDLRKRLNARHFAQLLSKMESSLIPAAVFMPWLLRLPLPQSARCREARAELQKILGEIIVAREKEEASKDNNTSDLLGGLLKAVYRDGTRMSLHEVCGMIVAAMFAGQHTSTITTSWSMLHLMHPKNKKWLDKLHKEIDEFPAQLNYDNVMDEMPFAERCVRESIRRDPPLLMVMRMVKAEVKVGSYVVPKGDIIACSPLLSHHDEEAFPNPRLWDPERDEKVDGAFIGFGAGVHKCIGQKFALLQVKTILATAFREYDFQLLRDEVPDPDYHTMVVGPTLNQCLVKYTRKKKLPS

SMILES | IC50 [1] [nM] | IC50 [2] [nM] | IC50 [3] [nM] | IC50 [4] [nM] | IC50 [5] [nM] | IC50 [6] [nM] | IC50 [7] [nM] | IC50 [8] [nM] | IC50 [9] [nM] | IC50 [10] [nM] | IC50 at 48 h [11] [nM] | IC50 [12] [nM] | IC50 [13] [nM]
O=c1[nH]cnc2c([C@@H]3O[C@H](CO)[C@@H](O)[C@H]3O)n[nH]c12 [FORMYCIN B] | 141 | 501 | 316 | > 50100 | 398 | 2000 | 398 | > 50100 | 3.16 | 5.01 | > 100000 | > 50100 | > 100000
CC(C)(C)C(O)(CCc1ccc(Cl)cc1)Cn1cncn1 (stereo unspecified) [TEBUCONAZOLE] | 126 | 251 | 200 | > 50100 | 3160 | > 50100 | > 50100 | > 50100 | > 39800 | > 39800 | > 100000 | > 50100 | 126
